# According to patent US6972172B2, “Combinatorial complex carbohydrate libraries and methods for the manufacture and uses thereof” (Glycominds Ltd., priority 2000, dated 2005):
# Experiments:
# [1] = activity of the polysaccharide as cited from the reference in Table 15; cited from earlier work
# TGP lectin = TGP lectin binding assay; set-up: species or system Tereagonolobus purpureas; conditions: Library 1 strip after the ERs sequence; peroxidase-conjugated lectin, O.D. 450 nm; versus control strip without nucleotide sugar
# Description: TGP: 100 μl of 20 μg/ml TGP lectin conjugated to peroxidase (SIGMA L-1508, 10 peroxidase units per mg protein) was added to the plates and incubated for one hour at 25° C. in TBS containing 1% BSA and 10 millimolar of MnCl2 and of CaCl2. The wells were washed three times with 200 μl TBST with a last wash consisting of a 15 minutes soak. 100 μl of fresh peroxidase substrate solution was added, and an hour later the O.D. of the solution (at 450 nm) was determined. When the above described binding assays were performed on covalently coupled monosaccharide acceptors, such as the case with Covalink NH plates, the TBS incubation solution was replaced with TBST and the wash steps were performed using high ionic strength buffer instead of TBST.
# [2] = system: anti-Sialyl Lewis X IgM from mouse; assay: Anti-Sialyl Lewis X antibody binding assay; conditions: Library 1 strip after the ERs sequence, anti-mouse IgM-biotin, avidin-peroxidase, O.D. 450 nm, versus control strip without nucleotide sugar
# Description: Anti-Sialyl Lewis X: 100 μl of 10 μg/ml anti-Sialyl Lewis X IgM from mouse (Calbiochem 565953) was added to the plates and incubated for 1 hour at 25° C. in TBS containing 1% BSA. The wells were washed 3 times with 200 μl TBST with a last wash consisting of a 15 minutes soak, following which, a solution of TBS containing 1% BSA and 100 μl of 5 μg/ml goat anti-mouse IgM conjugated to biotin (SIGMA b-9265) was added to the plates and incubated for one hour at 25° C. The wells were washed 3 times with […] with a last wash consisting of a 15 minutes soak, followed by incubation with […] containing 1% BSA and 5 μg/ml avidin conjugated to peroxidase (SIGMA A-3151, 40 peroxidase units per mg protein) for 1 hour at 25° C. The wells were washed three times with 200 μl TBST with a last wash consisting of a 15 minutes soak. 100 μl of fresh peroxidase substrate solution was added, and an hour later the O.D. of the solution (at 450 nm) was determined.
# When the above described binding assays were performed on covalently coupled monosaccharide acceptors, such as the case with Covalink NH plates, the TBS incubation solution was replaced with TBST and the wash steps were performed using high ionic strength buffer instead of TBST.
substance,measurement,setting,value
Fucoidan,Activity,[1],anti coagulant
"Gal β 1,4 (Fuc α 1,3)GlcNAc-S [EM 5]",TGP binding,TGP lectin,increase
"NeuAC α 2,3 Gal β 1,4 (Fuc α 1,3)GlcNAc [EM 6]",IgM Anti-Sialyl Lewis X binding,[2],increase
